Laboratory results published in publication PMC11243685, “Synthesis and Enzymatic Evaluation of a Small Library of Substituted Phenylsulfonamido-Alkyl Sulfamates towards Carbonic Anhydrase II” (Molecules, 2024).

Test system: not given
Test: not given
Conditions: not given

melting point [°C] | Structure (SMILES)
50 to 51 | Cc1ccc(S(=O)(=O)NCCCCO)cc1 [14a, N-(4-Hydroxybutyl)-4-methylbenzene Sulfonamide]
75 to 76 | CC(C)(C)c1ccc(S(=O)(=O)NCCCCCCCCCCO)cc1 [57a, 4-(tert-Butyl)-N-(10-hydroxydecyl)benzene Sulfonamide]
59 to 60 | O=S(=O)(NCCCCCCCCO)c1ccccc1 [7a, N-(8-Hydroxyoctyl)benzene Sulfonamide]
76 to 77 | O=S(=O)(NCCCCCCCCCCCCO)c1ccccc1 [11a, N-(12-Hydroxydodecyl)benzene Sulfonamide]
60 to 61 | Cc1ccc(S(=O)(=O)NCCCCCO)cc1 [15a, N-(5-Hydroxypentyl)-4-methylbenzene Sulfonamide]
49 to 51 | Cc1ccc(S(=O)(=O)NCCCCCCO)cc1 [16a, N-(6-Hydroxyhexyl)-4-methylbenzene Sulfonamide]
73 to 74 | Cc1ccccc1S(=O)(=O)NCCO [26a, N-(2-Hydroxyethyl)-2-methylbenzene Sulfonamide]
69 to 70 | CC(C)(C)c1ccc(S(=O)(=O)NCCCCCCCCCO)cc1 [56a, 4-(tert-Butyl)-N-(9-hydroxynonyl)benzene Sulfonamide]
87 to 88 | O=S(=O)(NCCCCCCO)c1ccc(C2CCCCC2)cc1 [72a, 4-Cyclohexyl-N-(6-hydroxyhexyl)benzene Sulfonamide]
40 to 42 | O=S(=O)(NCCCCCCO)c1ccccc1 [5a, N-(6-Hydroxyhexyl)benzene Sulfonamide]
58 to 59 | O=S(=O)(NCCCCCCCCCCCO)c1ccccc1 [10a, N-(11-Hydroxyundecyl)benzene Sulfonamide]
84 to 85 | O=S(=O)(NCCCCCCCCCO)c1ccc(C23CC4CC(CC(C4)C2)C3)cc1 [78a, 4-(Adamantan-1-yl)-N-(9-hydroxynonyl)benzene Sulfonamide]
51 to 52 | CC(C)(C)c1ccc(S(=O)(=O)NCCCCCCCO)cc1 [54a, 4-(tert-Butyl)-N-(7-hydroxyheptyl)benzene Sulfonamide]
55 to 57 | Cc1ccc(S(=O)(=O)NCCO)cc1 [12a, N-(2-Hydroxyethyl)-4-methylbenzene Sulfonamide]
75 to 77 | CC(C)(C)c1ccc(S(=O)(=O)NCCO)cc1 [49a, 4-(tert-Butyl)-N-(2-hydroxyethyl)benzene Sulfonamide]
58 to 60 | CC(C)(C)c1ccc(S(=O)(=O)NCCCCO)cc1 [51a, 4-(tert-Butyl)-N-(4-hydroxybutyl)benzene Sulfonamide]
53 to 54 | CC(C)(C)c1ccc(S(=O)(=O)NCCCCCCO)cc1 [53a, 4-(tert-Butyl)-N-(6-hydroxyhexyl)benzene Sulfonamide]
53 to 54 | CC(C)(C)c1ccc(S(=O)(=O)NCCCCCO)cc1 [52a, 4-(tert-Butyl)-N-(5-hydroxypentyl)benzene Sulfonamide]
101 to 102 | O=S(=O)(NCCCCCCCCO)c1ccc(C23CC4CC(CC(C4)C2)C3)cc1 [77a, 4-(Adamantan-1-yl)-N-(8-hydroxyoctyl)benzene Sulfonamide]
69 to 71 | CC(C)(C)c1ccc(S(=O)(=O)NCCCCCCCCO)cc1 [55a, 4-(tert-Butyl)-N-(8-hydroxyoctyl)benzene Sulfonamide]
78 to 79 | O=S(=O)(NCCO)c1ccccc1 [1a, N-(2-Hydroxyethyl)benzene Sulfonamide]
67 to 69 | O=S(=O)(NCCCCCCCCCCO)c1ccccc1 [9a, N-(10-Hydroxydecyl)benzene Sulfonamide]
55 to 57 | Cc1ccc(S(=O)(=O)NCCCO)cc1 [13a, N-(3-Hydroxypropyl)-4-methylbenzene Sulfonamide]
87 to 88 | Cc1ccc(S(=O)(=O)NCCCCCCCCO)cc1 [18a, N-(8-Hydroxyoctyl)-4-methylbenzene Sulfonamide]
76 to 79 | O=S(=O)(NCCCCCCCCCCO)c1ccc(C23CC4CC(CC(C4)C2)C3)cc1 [79a, 4-(Adamantan-1-yl)-N-(10-hydroxydecyl)benzene Sulfonamide]

Target: T1, bovine carbonic anhydrase II (Bos taurus, UniProt P00921)
T1 construct: carbonic anhydrase II (bCAII, ≥3000 W-A units/mg from bovine erythrocytes) from Sigma; purchased Sigma (Taufkirchen, Germany); host or cells: isolated from bovine erythrocytes
T1 sequence (P00921 whole entry): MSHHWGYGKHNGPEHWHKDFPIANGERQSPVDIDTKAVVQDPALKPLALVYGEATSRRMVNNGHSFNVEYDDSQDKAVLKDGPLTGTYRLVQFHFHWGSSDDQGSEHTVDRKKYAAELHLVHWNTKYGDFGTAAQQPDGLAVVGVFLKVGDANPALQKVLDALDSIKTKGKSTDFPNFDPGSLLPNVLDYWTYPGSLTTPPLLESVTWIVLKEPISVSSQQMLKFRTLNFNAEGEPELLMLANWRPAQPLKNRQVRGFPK
Test: Enzymatic assay of bCA II inhibition, absorbance at 415 nm;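 note: enzyme is carbonic anhydrase II isolated from bovine erythrocytes, with its activity followed photometrically at 415 nm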
Type: biochemical
Conditions: CA II; from Lineweaver–Burk, Dixon and Cornish Bowden plots; read-out: Inhibition constant Ki
Procedure: The enzymatic assays have been performed with carbonic anhydrase II (bCAII, ≥3000 W-A units/mg from bovine erythrocytes) from Sigma (Taufkirchen, Germany) using a BMG Labtech Spectrostar Omega apparatus (BMG Labtech, Ortenberg, Germany) measuring λ = 415 nm. Conditions have been described previously [72]. Ki and Ki′ values were determined from Lineweaver–Burk, Dixon and Cornish Bowden plots, respectively.

Ki [µM] | Structure (SMILES)
1.58 ± 0.02 | Cc1ccccc1S(=O)(=O)NCCCCCCOS(N)(=O)=O [30b, 6-[(2-Methylphenyl)sulfonamido]hexyl Sulfamate]
1.64 ± 0.03 | CC(C)c1cccc(S(=O)(=O)NCCOS(N)(=O)=O)c1 [40b, 2-[(3-Isopropylphenyl)sulfonamido]ethyl Sulfamate]

Same assay, conditions: bCA II; 1 μM concentration of the inhibitor; triplicate with three technical replicas

inhibition at 1 µM [%] | Structure (SMILES)
18.6 ± 1 | NS(=O)(=O)OCCCCCNS(=O)(=O)c1ccc(C2CCCCC2)cc1 [71b, 5-[(4-Cyclohexylphenyl)sulfonamido]pentyl Sulfamate]
34.7 ± 2.5 | NS(=O)(=O)OCCCCNS(=O)(=O)c1ccc(C2CCCCC2)cc1 [70b, 4-[(4-Cyclohexylphenyl)sulfonamido]butyl Sulfamate]
41.7 ± 0.8 | CC(C)(C)c1cccc(S(=O)(=O)NCCCCCCOS(N)(=O)=O)c1 [62b, 6-[(3-(tert-Butyl)phenyl)sulfonamido]hexyl Sulfamate]
34.2 ± 0.7 | CC(C)c1ccccc1S(=O)(=O)NCCCCCCCCOS(N)(=O)=O [48b, 8-[(2-Isopropylphenyl)sulfonamido]octyl Sulfamate]
56.2 ± 0.8 | CC(C)(C)c1ccccc1S(=O)(=O)NCCCCCOS(N)(=O)=O [65b, 5-[(2-(tert-Butyl)phenyl)sulfonamido]pentyl Sulfamate]
57.2 ± 0.7 | Cc1ccccc1S(=O)(=O)NCCCCCOS(N)(=O)=O [29b, 5-[(2-Methylphenyl)sulfonamido]pentyl Sulfamate]
44.4 ± 0.3 | CC(C)c1cccc(S(=O)(=O)NCCCCCOS(N)(=O)=O)c1 [43b, 5-[(3-Isopropylphenyl)sulfonamido]pentyl Sulfamate]
59.2 ± 0.8 | NS(=O)(=O)OCCNS(=O)(=O)c1ccccc1 [1b, 2-(Phenylsulfonamido]ethyl Sulfamate]
37.9 ± 0.7 | Cc1ccccc1S(=O)(=O)NCCCCOS(N)(=O)=O [28b, 4-[(2-Methylphenyl)sulfonamido]butyl Sulfamate]
39.2 ± 0.1 | CC(C)(C)c1cccc(S(=O)(=O)NCCCCCOS(N)(=O)=O)c1 [61b, 5-[(3-(tert-Butyl)phenyl)sulfonamido]pentyl Sulfamate]
19.7 ± 1.6 | NS(=O)(=O)OCCCCCCCCCCNS(=O)(=O)c1ccc(C2CCCCC2)cc1 [76b, 10-[(4-Cyclohexylphenyl)sulfonamido]decyl Sulfamate]
29.5 ± 0.9 | CC(C)c1cccc(S(=O)(=O)NCCCCCCCCOS(N)(=O)=O)c1 [46b, 8-[(3-Isopropylphenyl)sulfonamido]octyl Sulfamate]
35.3 ± 0.5 | CC(C)c1cccc(S(=O)(=O)NCCCCOS(N)(=O)=O)c1 [42b, 4-[(3-Isopropylphenyl)sulfonamido]butyl Sulfamate]
68.1 ± 0.3 | Cc1ccccc1S(=O)(=O)NCCCCCCOS(N)(=O)=O [30b, 6-[(2-Methylphenyl)sulfonamido]hexyl Sulfamate]
45.5 ± 0.7 | CC(C)c1cccc(S(=O)(=O)NCCCCCCOS(N)(=O)=O)c1 [44b, 6-[(3-Isopropylphenyl)sulfonamido]hexyl Sulfamate]
55.6 ± 0.7 | Cc1ccccc1S(=O)(=O)NCCCCCCCOS(N)(=O)=O [31b, 7-[(2-Methylphenyl)sulfonamido]heptyl Sulfamate]

inhibition at 1 µM [%] | Structure (SMILES)
52.1 ± 1.2 | NS(=O)(=O)OCCNS(=O)(=O)c1ccc(C2CCCCC2)cc1 [68b, 2-[(4-Cyclohexylphenyl)sulfonamido]ethyl Sulfamate]
34.5 ± 0.4 | CC(C)(C)c1ccccc1S(=O)(=O)NCCCCCCOS(N)(=O)=O [66b, 6-[(2-(tert-Butyl)phenyl)sulfonamido]hexyl Sulfamate]
32.2 ± 0.3 | NS(=O)(=O)OCCCCNS(=O)(=O)c1ccccc1 [3b, 4-(Phenylsulfonamido]butyl Sulfamate]
51.8 ± 0.7 | NS(=O)(=O)OCCCCCNS(=O)(=O)c1ccccc1 [4b, 5-(Phenylsulfonamido]pentyl Sulfamate]
43.3 ± 0.6 | CC(C)(C)c1cccc(S(=O)(=O)NCCCCOS(N)(=O)=O)c1 [60b, 4-[(3-(tert-Butyl)phenyl)sulfonamido]butyl Sulfamate]
27.5 ± 0.3 | CC(C)(C)c1ccccc1S(=O)(=O)NCCCCCCCOS(N)(=O)=O [67b, 7-[(2-(tert-Butyl)phenyl)sulfonamido]heptyl Sulfamate]
50.1 ± 0.9 | CC(C)c1cccc(S(=O)(=O)NCCCOS(N)(=O)=O)c1 [41b, 3-[(3-Isopropylphenyl)sulfonamido]propyl Sulfamate]
33.3 ± 0.3 | CC(C)(C)c1cccc(S(=O)(=O)NCCCCCCCOS(N)(=O)=O)c1 [63b, 7-[(3-(tert-Butyl)phenyl)sulfonamido]heptyl Sulfamate]
14.8 ± 0.4 | NS(=O)(=O)OCCCCCCCNS(=O)(=O)c1ccc(C2CCCCC2)cc1 [73b, 7-[(4-Cyclohexylphenyl)sulfonamido]heptyl Sulfamate]
37 ± 0.3 | CC(C)c1cccc(S(=O)(=O)NCCCCCCCOS(N)(=O)=O)c1 [45b, 7-[(3-Isopropylphenyl)sulfonamido]heptyl Sulfamate]
14.2 ± 1.1 | NS(=O)(=O)OCCCCCCCCNS(=O)(=O)c1ccc(C2CCCCC2)cc1 [74b, 8-[(4-Cyclohexylphenyl)sulfonamido]octyl Sulfamate]
38.4 ± 0.2 | CC(C)c1ccccc1S(=O)(=O)NCCCCCCCOS(N)(=O)=O [47b, 7-[(2-Isopropylphenyl)sulfonamido]heptyl Sulfamate]
63.7 ± 0.1 | CC(C)c1cccc(S(=O)(=O)NCCOS(N)(=O)=O)c1 [40b, 2-[(3-Isopropylphenyl)sulfonamido]ethyl Sulfamate]
56.2 ± 0.8 | Cc1ccccc1S(=O)(=O)NCCCCCCCCOS(N)(=O)=O [32b, 8-[(2-Methylphenyl)sulfonamido]octyl Sulfamate]
53.9 ± 0.3 | CC(C)(C)c1cccc(S(=O)(=O)NCCCOS(N)(=O)=O)c1 [59b, 3-[(3-(tert-Butyl)phenyl)sulfonamido]propyl Sulfamate]
54 ± 0.9 | CC(C)(C)c1cccc(S(=O)(=O)NCCOS(N)(=O)=O)c1 [58b, 2-[(3-(tert-Butyl)phenyl)sulfonamido]ethyl Sulfamate]
